Reference: patent publication US20040166079A1, “N-Lauroyl amino acid composition for slimming the human body” (priority 2003, published 2004)

Key:
human pancreatic lipase = biological target: T1, human pancreatic lipase (Homo sapiens, UniProt P16233); experiment: Measurement of the activity of lipase (LIPASE-PS kit, absorbance 550 nm); format: biochemical; details: relative to the control, 8 minutes at 37° C.
T1 construct: purchased SIGMA LIPASE-PS kit
T1 sequence (P16233 17-465): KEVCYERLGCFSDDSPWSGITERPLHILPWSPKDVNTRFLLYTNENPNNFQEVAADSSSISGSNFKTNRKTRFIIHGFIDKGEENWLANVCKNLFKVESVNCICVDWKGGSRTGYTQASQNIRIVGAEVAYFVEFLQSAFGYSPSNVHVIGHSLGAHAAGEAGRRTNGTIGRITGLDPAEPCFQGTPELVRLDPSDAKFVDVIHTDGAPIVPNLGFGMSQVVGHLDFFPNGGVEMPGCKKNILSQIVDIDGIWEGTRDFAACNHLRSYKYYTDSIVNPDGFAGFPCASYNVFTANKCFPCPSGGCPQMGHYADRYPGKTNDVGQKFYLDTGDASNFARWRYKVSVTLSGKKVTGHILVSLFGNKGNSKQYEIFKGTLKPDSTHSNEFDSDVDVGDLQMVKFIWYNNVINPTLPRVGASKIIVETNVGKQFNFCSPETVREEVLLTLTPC
T1 sequence (P02703 23-112 partner): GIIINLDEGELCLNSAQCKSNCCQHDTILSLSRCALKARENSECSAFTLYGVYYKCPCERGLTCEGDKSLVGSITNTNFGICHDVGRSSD
Procedure: Lipase is an enzyme which degrades triglycerides to fatty acids and glycerol according to the following reaction scheme: [drawing 5]
Inside the adipocytes, the free fatty acids can thus be removed from storage. […] It is based on an enzymatic test, using a purified enzyme.
A human pancreatic lipase (SIGMA, LIPASE-PS™ kit) is incubated in the presence of a diglyceride and a reaction system to produce a coloured quinone diimine which can be assayed by spectrophotometry (550 nm). The measurement of the absorbance at 550 nm is directly proportional to the activity of the lipase.
All the […] are provided in the LIPASE-PS™ kit (SIGMA) . The product is incubated with the reaction mixture for 8 minutes at 37° C.
The reaction system used is composed of:
The results are presented in the following table as a percentage activation of the lipase relative to the control.

human adipocytes = experiment: Assay of the free fatty acids (lipolytic activity) in isolated human adipocytes in suspension; format: cell-based; details: incubation concentration 0.0019 wt % DE
Text: Hydrolysis of the triglycerides to nonesterified fatty acids and glycerol is called lipolysis. Triglycerides are stored in the adipocytes and constitute the fat reserve. For this reserve to diminish, which is the desired aim when slimming products are used, the triglycerides should be hydrolysed in the form of fatty acids, which in their case can be removed from the cell. Hydrolysis of the triglycerides calls into play a hormone-dependent lipase which must be phosphorylated in order to be active. The phosphorylation step uses a kinase and cAMP. An increase in the cAMP content of the adipocytes is necessary for promoting the activity of the lipase and therefore the lipolysis. The method described consists in incubating the products in the presence of human adipocytes in suspension, followed by […].
The test is carried out using human adipocytes isolated and prepared as a cellular suspension. The adipocytes are isolated from the subcutaneous abdominal adipose tissue recovered during plastic surgery operations (abdominal plastic surgery operations) performed on women. The cells are isolated from fresh tissue. The adipose tissue is isolated and dissociated by the action of a collagenase (SIGMA™, 1 mg/ml, 30 minutes at 37° C., gentle stirring). Collagenase digests the connective tissue present in the adipose tissue. After digestion, the cells are filtered and washed in an appropriate culture medium containing MEM medium free of phenol red, free of glutamine (SIGMA)+2.2 mg/ml of sodium bicarbonate (GIBCO)+50 IU of penicillin (BIOWHITTAKER™)+50 μg/ml of streptomycin (BIOWHITTAKER™)+1% (v/v) of L-glutamine (BIOWHITTAKER™)+0.5% of lipid-free serum albumin (SIGMA™). The adipocyte suspension is used immediately after its preparation.
The test products are diluted in the adipocyte culture medium. They are incubated with the cells in suspension for two hours at 37° C. (250 μl of product+250 μl of adipocyte suspension).
After the incubation, the cell lysis is checked visually by the presence of a lipid layer at the surface of the cellular suspension. The supernatant media are collected. The free fatty acids are assayed by spectrophotometry using a commercial kit (NEFA™ C kit, WAKO), with reference to a fatty acid calibration series. The lypolytic activity of the products is evaluated relative to a control group incubated in the presence of adipocytes and in the absence of product. […] Five assays are performed for each of the test products which are as follows:
This assay is repeated by carrying out new assays at different concentrations.

Compound: Cn1c(=O)c2c(ncn2C)n(C)c1=O [Caffeine, 1,3,7-trimethyl-xanthine]
- Percentage activation of the lipase (human pancreatic lipase; incubation concentration 0.01 % DE): 0%
- Percentage activation of the lipase (human pancreatic lipase; incubation concentration 0.1 % DE): 10%
- Free fatty acid concentration (human adipocytes; 2 h at 37° C., mean of five assays): 15.10 ± 4.11 µM
- Lipolytic activity (compared with the control = 100) (human adipocytes; control = 100): 131
